The text below walks through data of patent publication US8445008B2, “Reduction of infection associated with medical device” (Medtronic, Inc., priority 2008, dated 2013).

The MIC is the lowest concentration that inhibits growth of the organism. A low value points to inhibition by little substance.

Converted amounts (≈) assume the structure as drawn.

For data set [1], the system named is S. aureus. Kind of data set: Minimum inhibitory concentration against the S. aureus strain used in the studies. To be noted: Staphylococcus aureus; strain of S. aureus used in the studies. The class given is cell-based.
A short description of data set [2]: Solubility in extraction/HPLC solvents. The format is physicochemical.

Turning to `CO[C@H]1/C=C/O[C@@]2(C)Oc3c(C)c(O)c4c(O)c(c(/C=N/N5CCN(C)CC5)c(O)c4c3C2=O)NC(=O)/C(C)=C\C=C\[C@H](C)[C@H](O)[C@@H](C)[C@@H](O)[C@@H](C)[C@H](OC(C)=O)[C@@H]1C` [rifampin], the MIC in data set [1] was determined as 0.06 µg/mL (≈ 0.0729 µM). The “solubility in methanol and THF/ethanol 4:1” value in data set [2] is recorded as “good solubility”.
